Experimental data from patent US12162890B2 (Novartis AG, priority 2015, dated 2024).

Molecular target: HEK293 cells with stable expression of the GRIN1 gene and tetracycline-inducible expression of the GRIN2B gene (NMDA receptor, NR2B) (Homo sapiens, UniProt Q13224)
Test: Fluo-8 Ca2+ flux assay: reversal of Ro 25-6981-mediated suppression of the Ca2+ response to co-agonist (glutamate/glycine); note: test concentration or dose not given here
Assay type: cell-based
Details: reversal of the Ro 25-6981 suppression of the Ca2+ response to co-agonist (glutamate/glycine)

Sequence of HEK293 cells with stable expression of the GRIN1 gene and tetracycline-inducible expression of the GRIN2B gene (NMDA receptor, NR2B) (Q13224 27-1484, other chains not shown): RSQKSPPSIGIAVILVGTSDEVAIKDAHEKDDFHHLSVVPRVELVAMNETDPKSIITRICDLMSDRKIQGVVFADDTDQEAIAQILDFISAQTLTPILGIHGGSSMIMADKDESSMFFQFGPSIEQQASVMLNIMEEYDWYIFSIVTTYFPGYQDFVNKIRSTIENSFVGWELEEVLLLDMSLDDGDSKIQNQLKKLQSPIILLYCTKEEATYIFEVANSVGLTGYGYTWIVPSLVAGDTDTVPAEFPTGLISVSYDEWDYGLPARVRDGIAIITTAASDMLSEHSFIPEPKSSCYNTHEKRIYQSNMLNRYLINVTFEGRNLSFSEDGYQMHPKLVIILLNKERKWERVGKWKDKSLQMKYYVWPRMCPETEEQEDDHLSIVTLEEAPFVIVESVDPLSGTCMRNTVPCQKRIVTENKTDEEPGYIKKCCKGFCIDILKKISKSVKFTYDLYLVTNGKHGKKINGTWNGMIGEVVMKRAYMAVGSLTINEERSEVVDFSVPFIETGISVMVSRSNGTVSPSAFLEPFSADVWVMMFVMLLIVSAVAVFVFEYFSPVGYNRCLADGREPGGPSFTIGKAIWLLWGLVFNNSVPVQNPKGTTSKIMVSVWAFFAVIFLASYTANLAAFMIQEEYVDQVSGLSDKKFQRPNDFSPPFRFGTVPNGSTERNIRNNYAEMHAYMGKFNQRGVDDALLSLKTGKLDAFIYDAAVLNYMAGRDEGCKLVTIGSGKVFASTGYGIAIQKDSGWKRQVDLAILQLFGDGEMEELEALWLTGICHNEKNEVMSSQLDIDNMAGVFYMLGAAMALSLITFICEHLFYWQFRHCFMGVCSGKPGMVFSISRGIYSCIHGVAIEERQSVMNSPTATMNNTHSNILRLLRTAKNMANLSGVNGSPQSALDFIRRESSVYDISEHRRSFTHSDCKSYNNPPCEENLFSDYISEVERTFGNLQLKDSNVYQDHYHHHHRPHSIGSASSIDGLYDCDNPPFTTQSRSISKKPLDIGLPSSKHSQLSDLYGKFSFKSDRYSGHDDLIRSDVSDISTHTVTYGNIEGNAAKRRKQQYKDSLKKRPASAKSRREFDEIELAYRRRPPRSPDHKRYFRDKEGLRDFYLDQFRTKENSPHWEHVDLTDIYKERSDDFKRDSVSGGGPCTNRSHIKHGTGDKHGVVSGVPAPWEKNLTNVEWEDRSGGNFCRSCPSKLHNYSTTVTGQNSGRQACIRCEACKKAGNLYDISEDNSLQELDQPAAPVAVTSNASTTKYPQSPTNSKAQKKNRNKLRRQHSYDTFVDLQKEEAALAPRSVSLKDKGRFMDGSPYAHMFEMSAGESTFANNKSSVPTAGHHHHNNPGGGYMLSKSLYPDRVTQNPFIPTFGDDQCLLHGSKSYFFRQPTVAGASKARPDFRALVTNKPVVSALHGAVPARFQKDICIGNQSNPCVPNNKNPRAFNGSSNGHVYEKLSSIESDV

In order of rising “Response Recovered (%)” value:
1. O=C(Cn1ccc2scc(-c3cncc(Cl)n3)c2c1=O)N1CC(F)(CF)C1 [Example 146, 3-(6-chloropyrazin-2-yl)-5-(2-(3-fluoro-3-(fluoromethyl)azetidin-1-yl)-2-oxoethyl)thieno[3,2-c]pyridin-4(5H)-one]  −3.8%
2. CCC1(F)CN(C(=O)Cn2ccc3scc(-c4cncc(Cl)n4)c3c2=O)C1 [Example 147, 3-(6-chloropyrazin-2-yl)-5-(2-(3-ethyl-3-fluoroazetidin-1-yl)-2-oxoethyl)thieno[3,2-c]pyridin-4(5H)-one]  −0.39%
3. CC1(F)CN(C(=O)Cn2ccc3scc(-c4cncc(Cl)n4)c3c2=O)C1 [Example 145, 3-(6-chloropyrazin-2-yl)-5-(2-(3-fluoro-3-methylazetidin-1-yl)-2-oxoethyl)thieno[3,2-c]pyridin-4(5H)-one]  3%
4. O=C(Cn1ccc2scc(-c3cnc(F)c(F)c3)c2c1=O)N1CC(F)(CF)C1 [Example 144, 3-(5,6-difluoropyridin-3-yl)-5-(2-(3-fluoro-3-(fluoromethyl)azetidin-1-yl)-2-oxoethyl)thieno[3,2-c]pyridin-4(5H)-one]  9.8%
5. O=C(Cn1cnc2[nH]cc(-c3ccc(Cl)cc3)c2c1=O)N1CCCC1C(F)(F)F (stereo not shown) [Example 152, 5-(4-chlorophenyl)-3-(2-oxo-2-(2-(trifluoromethyl)pyrrolidin-1-yl)ethyl)-3H-pyrrolo[2,3-d]pyrimidin-4(7H)-one]  10%
6. CCC1(F)CN(C(=O)Cn2ccc3scc(-c4cnc(F)c(F)c4)c3c2=O)C1 [Example 143, 3-(5,6-difluoropyridin-3-yl)-5-(2-(3-ethyl-3-fluoroazetidin-1-yl)-2-oxoethyl)thieno[3,2-c]pyridin-4(5H)-one]  15%
7. CCn1cc(-c2ccc(Cl)c(F)c2)c2c(=O)n(CC(=O)N3CC(F)(F)C3)cnc21 [Example 171, 5-(4-chloro-3-fluorophenyl)-3-(2-(3,3-difluoroazetidin-1-yl)-2-oxoethyl)-7-ethyl-3H-pyrrolo[2,3-d]pyrimidin-4(7H)-one]  15%
8. Cn1cc(-c2ccc(Cl)cc2)c2c(=O)n(CC(=O)N3CCCC3)cnc21 [Example 151, 5-(4-chlorophenyl)-7-methyl-3-(2-oxo-2-(pyrrolidin-1-yl)ethyl)-3H-pyrrolo[2,3-d]pyrimidin-4(7H)-one]  17%
9. Cn1cc(-c2ccc(Cl)c(F)c2)c2c(=O)n(CC(=O)N3CC(F)(F)C3)cnc21 [Example 170, 5-(4-chloro-3-fluorophenyl)-3-(2-(3,3-difluoroazetidin-1-yl)-2-oxoethyl)-7-methyl-3H-pyrrolo[2,3-d]pyrimidin-4(7H)-one]  18%
10. Cn1cc(-c2ccc(Cl)cc2)c2c(=O)n(CC(=O)N3CC(F)(F)C3)cnc21 [Example 155, 5-(4-chlorophenyl)-3-(2-(3,3-difluoroazetidin-1-yl)-2-oxoethyl)-7-methyl-3H-pyrrolo[2,3-d]pyrimidin-4(7H)-one]  24%
11. Cn1cc(-c2ccc(F)c(Cl)c2)c2c(=O)n(CC(=O)N3CCCC3)cnc21 [Example 159, 5-(3-chloro-4-fluorophenyl)-7-methyl-3-(2-oxo-2-(pyrrolidin-1-yl)ethyl)-3H-pyrrolo[2,3-d]pyrimidin-4(7H)-one]  25%
12. Cn1cc(-c2ccc(Cl)c(F)c2)c2c(=O)n(CC(=O)N3CCCC3)cnc21 [Example 165, 5-(4-chloro-3-fluorophenyl)-7-methyl-3-(2-oxo-2-(pyrrolidin-1-yl)ethyl)-3H-pyrrolo[2,3-d]pyrimidin-4(7H)-one]  25%
13. O=C(Cn1cnc2[nH]cc(-c3ccc(Cl)cc3)c2c1=O)N1CCCC1 [Example 150, 5-(4-chlorophenyl)-3-(2-oxo-2-(pyrrolidin-1-yl)ethyl)-3H-pyrrolo[2,3-d]pyrimidin-4(7H)-one]  31%
14. O=C(Cn1cnc2c(c(-c3ccc(Cl)c(F)c3)cn2CCF)c1=O)N1CCCC1 [Example 173, 5-(4-chloro-3-fluorophenyl)-7-(2-fluoroethyl)-3-(2-oxo-2-(pyrrolidin-1-yl)ethyl)-3H-pyrrolo[2,3-d]pyrimidin-4(7H)-one]  32%
15. Cn1cc(-c2ccc(Cl)cc2)c2c(=O)n(CC(=O)N3CCCC3C(F)(F)F)cnc21 (stereo not shown) [Example 153, 5-(4-chlorophenyl)-7-methyl-3-(2-oxo-2-(2-(trifluoromethyl)pyrrolidin-1-yl)ethyl)-3H-pyrrolo[2,3-d]pyrimidin-4(7H)-one]  35%
16. O=C(Cn1cnc2[nH]cc(-c3ccc(Cl)c(F)c3)c2c1=O)N1CC(F)(F)C1 [Example 167, 5-(4-chloro-3-fluorophenyl)-3-(2-(3,3-difluoroazetidin-1-yl)-2-oxoethyl)-3H-pyrrolo[2,3-d]pyrimidin-4(7H)-one]  35%
17. O=C(Cn1cnc2[nH]cc(-c3ccc(Cl)cc3)c2c1=O)N1CC(F)(F)C1 [Example 154, 5-(4-chlorophenyl)-3-(2-(3,3-difluoroazetidin-1-yl)-2-oxoethyl)-3H-pyrrolo[2,3-d]pyrimidin-4(7H)-one]  36%
18. O=C(Cn1cnc2[nH]cc(-c3ccc(F)c(Cl)c3)c2c1=O)N1CCCC1 [Example 156, 5-(3-chloro-4-fluorophenyl)-3-(2-oxo-2-(pyrrolidin-1-yl)ethyl)-3H-pyrrolo[2,3-d]pyrimidin-4(7H)-one]  36%
19. Cn1cc(-c2ccc(F)c(Cl)c2)c2c(=O)n(CC(=O)N3CC(F)(F)C3)cnc21 [Example 162, 5-(3-chloro-4-fluorophenyl)-3-(2-(3,3-difluoroazetidin-1-yl)-2-oxoethyl)-7-methyl-3H-pyrrolo[2,3-d]pyrimidin-4(7H)-one]  40%
20. O=C(Cn1cnc2c(c(-c3ccc(F)c(Cl)c3)cn2CCF)c1=O)N1CCCC1 [Example 172]  40%
21. CCn1cc(-c2ccc(F)c(Cl)c2)c2c(=O)n(CC(=O)N3CCCC3)cnc21 [Example 160, 5-(3-chloro-4-fluorophenyl)-7-ethyl-3-(2-oxo-2-(pyrrolidin-1-yl)ethyl)-3H-pyrrolo[2,3-d]pyrimidin-4(7H)-one]  42%
22. CCn1cc(-c2ccc(F)c(Cl)c2)c2c(=O)n(CC(=O)N3CC(F)(F)C3)cnc21 [Example 163, 5-(3-chloro-4-fluorophenyl)-3-(2-(3,3-difluoroazetidin-1-yl)-2-oxoethyl)-7-ethyl-3H-pyrrolo[2,3-d]pyrimidin-4(7H)-one]  48%
23. O=C(Cn1cnc2[nH]cc(-c3ccc(Cl)c(F)c3)c2c1=O)N1CCCC1 [Example 164, 5-(4-chloro-3-fluorophenyl)-3-(2-oxo-2-(pyrrolidin-1-yl)ethyl)-3H-pyrrolo[2,3-d]pyrimidin-4(7H)-one]  48%
24. Cn1cc(-c2ccc(Cl)c(C(F)(F)F)c2)c2c(=O)n(CC(=O)N3CC(F)(F)C3)cnc21 [Example 168, 5-(4-chloro-3-(trifluoromethyl)phenyl)-3-(2-(3,3-difluoroazetidin-1-yl)-2-oxoethyl)-7-methyl-3H-pyrrolo[2,3-d]pyrimidin-4(7H)-one]  55%
25. CCn1cc(-c2ccc(Cl)c(C(F)(F)F)c2)c2c(=O)n(CC(=O)N3CC(F)(F)C3)cnc21 [Example 169]  57%
26. O=C(Cn1cnc2[nH]cc(-c3ccc(F)c(Cl)c3)c2c1=O)N1CC(F)(F)C1 [Example 161, 5-(3-chloro-4-fluorophenyl)-3-(2-(3,3-difluoroazetidin-1-yl)-2-oxoethyl)-3H-pyrrolo[2,3-d]pyrimidin-4(7H)-onepyrrolo[2,3-d]pyrimidin-4(7H)-one]  58%
27. O=C(Cn1cnc2[nH]cc(-c3ccc(C(F)(F)F)c(Cl)c3)c2c1=O)N1CCC(F)C1 (stereo not shown) [Example 176, 5-(3-chloro-4-(trifluoromethyl)phenyl)-3-(2-(3-fluoropyrrolidin-1-yl)-2-oxoethyl)-3H-pyrrolo[2,3-d]pyrimidin-4(7H)-one]  63%
28. O=C(Cn1cnc2c(c(-c3ccc(Cl)c(C(F)(F)F)c3)cn2CCF)c1=O)N1CCCC1 [Example 149, 5-(4-chloro-3-(trifluoromethyl)phenyl)-7-(2-fluoroethyl)-3-(2-oxo-2-(pyrrolidin-1-yl)ethyl)-3H-pyrrolo[2,3-d]pyrimidin-4(7H)-one]  64%
29. O=C(Cn1cnc2[nH]cc(-c3ccc(Cl)c(C(F)(F)F)c3)c2c1=O)N1CC(F)(F)C1 [Example 166, 5-(4-chloro-3-(trifluoromethyl)phenyl)-3-(2-(3,3-difluoroazetidin-1-yl)-2-oxoethyl)-3H-pyrrolo[2,3-d]pyrimidin-4(7H)-one]  65%
30. O=C(Cn1cnc2[nH]cc(-c3ccc(Cl)c(C(F)(F)F)c3)c2c1=O)N1CCCC1 [Example 148, 5-(4-chloro-3-(trifluoromethyl)phenyl)-3-(2-oxo-2-(pyrrolidin-1-yl)ethyl)-3H-pyrrolo[2,3-d]pyrimidin-4(7H)-one]  66%
31. CCn1cc(-c2ccc(Cl)c(C(F)(F)F)c2)c2c(=O)n(CC(=O)N3CCCC3)cnc21 [Example 157, 5-(4-chloro-3-(trifluoromethyl)phenyl)-7-ethyl-3-(2-oxo-2-(pyrrolidin-1-yl)ethyl)-3H-pyrrolo[2,3-d]pyrimidin-4(7H)-one]  70%
32. Cn1cc(-c2ccc(Cl)c(C(F)(F)F)c2)c2c(=O)n(CC(=O)N3CCCC3)cnc21 [Example 158, 5-(4-chloro-3-(trifluoromethyl)phenyl)-7-methyl-3-(2-oxo-2-(pyrrolidin-1-yl)ethyl)-3H-pyrrolo[2,3-d]pyrimidin-4(7H)-one]  72%
33. O=C(Cn1cnc2[nH]cc(-c3ccc(Cl)c(Cl)c3)c2c1=O)N1CCC(F)C1 (stereo not shown) [Example 175, 5-(3,4-dichlorophenyl)-3-(2-(3-fluoropyrrolidin-1-yl)-2-oxoethyl)-3H-pyrrolo[2,3-d]pyrimidin-4(7H)-one]  77%
34. O=C(Cn1cnc2[nH]cc(-c3ccc(F)c(C(F)(F)F)c3)c2c1=O)N1CCC(F)C1 (stereo not shown) [Example 174, 5-(4-fluoro-3-(trifluoromethyl)phenyl)-3-(2-(3-fluoropyrrolidin-1-yl)-2-oxoethyl)-3H-pyrrolo[2,3-d]pyrimidin-4(7H)-one]  91%
